12 molecules from ChEMBL document CHEMBL5260847, “Current scenario of indole derivatives with potential anti-drug-resistant cancer activity” (Eur J Med Chem, 2020) can be followed below.

Molecules are shown by their SMILES. pIC50: −log10 of the molar value. Some results are limits rather than exact numbers.

Series [1] deals with HT-29. The series can be described thus: Cytotoxicity activity against human HT-29 cells assessed as reduction in cell viability by SRB assay. In kind it is functional, cell-based. For orientation: In SRB staining, fixed cells bind dye roughly in proportion to their protein.
The subject of series [2] is Epidermoid carcinoma cell line. The series can be described thus: Cytotoxicity activity against vincristine-resistant human Epidermoid carcinoma cell line assessed as reduction in cell growth. The format is functional, cell-based.
Series [3] concerns KB. The series can be described thus: Cytotoxicity activity against vincristine-resistant human KB cells assessed as reduction in cell growth. In kind it is functional, cell-based.
Series [4] concerns HeLa. The series can be described thus: Antiproliferative activity against human Hela cells assessed as reduction in cell viability measured after 48 hrs by MTT assay. The format is functional, cell-based. (In general: Formazan colour is commonly taken as a measure of viable cells.)
For another series, the system named is LNCaP. The series can be described thus: Cytotoxicity activity against human LNCaP cells assessed as reduction in cell viability. The format is functional, cell-based.
The test system of series [5] is A549. The series can be described thus: Antiproliferative activity against multi-drug resistant human A549 cells assessed as reduction in cell viability. The format is functional, cell-based.
In a further series the test system is HepG2. The series can be described thus: Anticancer activity against human HepG2 cells assessed as inhibition of cell growth. The format is functional, cell-based.
Series [6] relates to MCF7. The series can be described thus: Antiproliferative activity against human MCF7 cells assessed as inhibition of cell proliferation incubated for 72 hrs by MTT assay. In kind it is functional, cell-based. The settings on record: MCF7, 72 h.
Series [7] relates to A549. The series can be described thus: Antiproliferative activity against human A549 cells assessed as inhibition of cell growth measured after 72 hrs by SRB assay. As to conditions: A549, 72 h. In kind it is functional, cell-based.
Series [8] relates to A549. The series can be described thus: Cytotoxicity activity against human A549 cells assessed as reduction in cell viability by SRB assay. The format is functional, cell-based.
The nature of series [9]: Antiproliferative activity against human KB-VIN cells assessed as reduction in cell viability measured after 72 hrs by SRB assay. In kind it is functional, cell-based. As to conditions: KBVIN.
Series [10] concerns ZR-75-1. The series can be described thus: Antiproliferative activity against human ZR-75-1 cells assessed as reduction in cell viability celltiter-Glo assay. The format is functional, cell-based. In general terms: Cellular ATP, detected with luciferase, serves as a proxy for viable cell number.
In another series the test system is IEC-6. The series can be described thus: Antiproliferative activity against rat IEC-6 cells assessed as reduction in cell viability measured after 48 hrs by MTT assay. The format is functional, cell-based. As to conditions: IEC-6, 48 h.
Series [11] deals with HT-29. The series can be described thus: Antiproliferative activity against human HT-29 cells assessed as reduction in cell viability celltiter-Glo assay. The format is functional, cell-based.
Series [12] relates to H69AR. The series can be described thus: Antiproliferative activity against multidrug resistant human NCI-H69AR assessed as inhibition of cell proliferation by MTT assay. The format is functional, cell-based.
Series [13] can be described thus: Selectivity index, ratio of IC50 for antiproliferative activity against human MCF-10A cells to IC50 for antiproliferative activity against […] cells by MTT assay. In kind it is toxicity, cell-based. The settings on record: MCF-10A cells and IEC-6 cells, read-out: Selectivity Index.
In series [14] the test system is A549. The series can be described thus: Antiproliferative activity against drug-sensitive human A549 cells assessed as reduction in cell viability by MTT assay. In kind it is functional, cell-based.
The test system of series [15] is H69AR. The series can be described thus: Antiproliferative activity against multi-drug resistant human NCI-H69AR assessed as reduction in cell viability. In kind it is functional, cell-based.
For a further series, the system named is DLD-1. The series can be described thus: Cytotoxicity against human DLD-1 cells assessed as reduction in cell viability measured after 48 hrs by SRB assay. The format is functional, cell-based. As to conditions: DLD-1, 48 h.
A further series deals with SK-OV-3. The series can be described thus: Cytotoxicity against human SK-OV-3 cells assessed as reduction in cell viability measured after 48 hrs by SRB assay. The format is functional, cell-based. As to conditions: SK-OV-3, 48 h.
The next series deals with SW-620. The series can be described thus: Cytotoxicity against human SW620 cells assessed as reduction in cell viability measured after 48 hrs by SRB assay. In kind it is functional, cell-based. The settings on record: SW-620, 48 h.
Series [16] concerns MCF7. The series can be described thus: Cytotoxicity against human MCF7 cells assessed as reduction in cell viability measured after 48 hrs by SRB assay. The format is functional, cell-based. As to conditions: MCF7, 48 h.
In series [17] the test system is KB. The series can be described thus: Antiproliferative activity against human KB cells assessed as reduction in cell growth incubated for 2 days by MTT assay. The format is functional, cell-based. The settings on record: 48 h.
Another series concerns K562/A02. The series can be described thus: Antiproliferative activity against human K562/A02 cells assessed as reduction in cell viability measured after 2 days by MTT assay. In kind it is functional, cell-based. The settings on record: K562/A02, 48 h.
The test system of series [18] is HeLa. The series can be described thus: Anticancer activity against human HeLa cells assessed as inhibition of cell growth. The format is functional, cell-based.
The test system of series [19] is HT-29. The series can be described thus: Antiproliferative activity against drug-sensitive human HT-29 cells assessed as reduction in cell viability by MTT assay. The format is functional, cell-based.
Series [20] deals with ZR-75-1. The series can be described thus: Antiproliferative activity against multi-drug resistant human ZR-75-1 cells assessed as reduction in cell viability. The format is functional, cell-based.
A further series relates to MCF-10A. The series can be described thus: Antiproliferative activity against human MCF-10A cells assessed as reduction in cell viability measured after 48 hrs by MTT assay. In kind it is functional, cell-based.
Series [21] in a line: Cytotoxicity activity against human U87MG.deltaEGFR cells assessed as reduction in cell viability incubated for 72 hrs by MTT assay. The format is functional, cell-based.

As a reminder, the pIC50 is −log10 of the IC50, conventionally taken in molar units. For the molecule `C/C=C1/CN2[C@H]3C[C@@H]1C(CO)[C@@H]2Cc1c3n(C)c2cc(C[C@H]3[C@@H]4C[C@H]5c6c(c7ccccc7n6C)C[C@@H]([C@@H]4CO[C@]3(C)OC)N5C)c(OC)cc12` (stereo not given in full), the pIC50 in the series on HT-29 [1] is 7.70.

Take `CC[C@@]12CC(C(=O)OC)=C3N=C4C(=CC(=O)C(O)=C4OC)[C@@]34CCN([C@@H]3c5cc6c(cc5O[C@@H]3[C@H]1O)NC1=C(C(=O)OC)C[C@]3(CC)[C@@H]5O[C@@H]5CN5CC[C@@]16[C@@H]53)[C@H]42`: the pIC50 in series [2] was 5.54; in the series on KB [3] it was 8.00.

For `O=Cc1c[nH]c2ccccc12` [3-FORMYLINDOLE], in the series with HeLa [4], the pIC50 is less than 4.00.

In the case of `CC[C@]1(O)C[C@H]2CN(CCc3c([nH]c4ccccc34)[C@@](C(=O)OC)(c3cc4c(cc3OC)N(C=O)[C@H]3[C@@](O)(C(=O)OC)[C@H](OC(C)=O)[C@]5(CC)C=CCN6CC[C@]43[C@@H]65)C2)C1` [VINCRISTINE], in the series on LNCaP, the pIC50 is 5.59.

With `CCOC(=O)c1c(-c2ccccc2)oc2ccc(OCCCCCCN3C(=O)C(=O)c4ccccc43)cc12`, the pIC50 in the series on A549 [5] is 4.32.

On to `CO/N=C1\C(=O)N(Cc2cn(CCOCCN3C(=O)/C(=N/OC)c4ccccc43)nn2)c2ccccc21`, for which the pIC50 in the series on HepG2 is 6.74.

As to `CC[C@@H]1C[C@@H]2CN3CCc4c([nH]c5c([C@H]6CC7[C@]8(O[C@@H]8C)[C@@H]8OC[C@@]7(C(=O)OC)[C@H](Cc7c6[nH]c6ccccc76)N8C)c(OC)ccc45)[C@@](C(=O)OC)(C2)[C@@H]13`, the pIC50 with MCF7 [6] was 4.89; in the series with A549 [7], 5.51; with A549 [8] it was 5.32; in [9], 5.59.

Regarding `O=C1Nc2ccc(Cl)cc2/C1=N/N=C/c1nc(-c2ccccc2)cs1`, the negative-log IC50 (pIC50) in the series on ZR-75-1 [10] is 5.71; in the series on IEC-6, 5.05; with HT-29 [11], 5.14; in the series on H69AR [12], 4.78; in the series with A549 [14], 4.99; with H69AR [15], 4.80. For the same molecule, the selectivity ratio in series [13] stood at 1.8.

As to `COc1ccc(C(=O)/C=C/c2nccc3c2[nH]c2ccccc23)cc1OC`, the pIC50 with DLD-1 is 5.60; with SK-OV-3, 5.30; in the series with SW-620, 5.00; with MCF7 [16], 5.90.

Turning to `COc1cc([C@@H]2c3cc4c(cc3[C@@H](O[C@@H]3O[C@@H]5CO[C@@H](C)O[C@H]5[C@H](O)[C@H]3O)[C@H]3COC(=O)[C@H]23)OCO4)cc(OC)c1O` [ETOPOSIDE], the pIC50 was 5.99 in the series on KB [17], 5.16 in the series on HepG2, 4.98 with K562/A02 and less than 4.30 with HeLa [18].

On to `O=C1Nc2ccc(Cl)cc2/C1=N/N=C/c1ccn[nH]1`, for which the pIC50 with ZR-75-1 [10] was 5.86; in the series with HT-29 [19], 5.23; in the series with HT-29 [11], 5.56; in the series on H69AR [12] it was 4.80; with ZR-75-1 [20], 5.86; in the series on MCF-10A, 5.47. For the same molecule, the pIC50 in the series on H69AR [15] is 4.78. Besides, the selectivity ratio in series [13] was determined as 1.6.

Consider `COC(=O)[C@H]1[C@H]2C[C@@H]3c4[nH]c5cc(OC)ccc5c4CCN3C[C@H]2C[C@@H](OC(=O)c2cc(OC)c(OC)c(OC)c2)[C@@H]1OC` [RESERPINE], for which the pIC50 in series [21] is 5.04.
